From the supplement of paper PMC10307832

Each cell line was assayed with COc1nc(N)nc2c1ncn2[C@@H]1O[C@H](CO)[C@@H](O)[C@@H]1O [Nelarabine] + Cc1nc(NC(=O)N2CCC[C@H]2C(N)=O)sc1-c1ccnc(C(C)(C)C(F)(F)F)c1 [Alpelisib] (partner 2 µM) (assay: relative viability (nuclei count vs DMSO), 5 days (fraction); higher = more cells survive). Conditions: first compound 1 µM.
Outline: (§1)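 Relative viability is defined as nuclei in treated wells over nuclei in vehicle wells. Duplicate plates were run and medians reported. Lung cancer cell lines in 1536-well plates were dosed by pin tool one day after seeding, with one drug or with a fixed anchor-drug dose plus five library-drug doses (not always all listed) in √10 steps, and nuclei were counted after 5 days.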

ABC-1 and BEN are the same in relative viability: 1.08 for the first, 1.08 for the second.

Compared with CAL-12T, COR-L23 is lower in relative viability: 1.37 for the first, 0.747 for the second.

Going from COR-L 105 to Calu-6, the relative viability rises from 0.985 to 1.11.

Going from EBC-1 to EKVX, the relative viability falls from 0.951 to 0.832.

First: EPLC-272H
Second: H3255
The relative viability of the first is higher: 0.808 for the first, 0.75 for the second.

Going from HARA to HCC-15, the relative viability rises from 0.806 to 0.934.

Compared with HCC-44, HCC-78 is lower in relative viability: 0.831 for the first, 0.4 for the second.

Compared with HCC-366, HCC-827 is higher in relative viability: 0.47 for the first, 0.595 for the second.

Compared with HOP-62, IA-LM is lower in relative viability: 1.07 for the first, 0.826 for the second.

Going from LC-2-ad to LCLC-97TM1, the relative viability falls from 0.928 to 0.26.

First: LCLC-103H
Second: LK-2
The relative viability of the first is lower: 0.956 for the first, 1.04 for the second.

First: LOU-NH91
Second: LU99A
The relative viability of the first is higher: 0.738 for the first, 0.54 for the second.

First: NCI-H520
Second: NCI-H661
The relative viability of the first is higher: 1.1 for the first, 0.455 for the second.

First: NCI-H1299
Second: NCI-H1563
The relative viability of the first is higher: 1.2 for the first, 0.919 for the second.

Going from NCI-H1703 to NCI-H1792, the relative viability rises from 0.409 to 0.828.

Going from NCI-H2009 to NCI-H2023, the relative viability falls from 1.14 to 0.55.

Going from NCI-H2228 to SK-LU-1, the relative viability rises from 0.676 to 1.

Going from SK-MES-1 to SW 1573, the relative viability falls from 0.948 to 0.818.

UMC-11 showed a relative viability of 0.96.

The cell lines below were run with C=CCn1c(=O)c2cnc(Nc3ccc(N4CCN(C)CC4)cc3)nc2n1-c1cccc(C(C)(C)O)n1 [Adavosertib] + COc1cc2c(Oc3ccc(NC(=O)C4(C(=O)Nc5ccc(F)cc5)CC4)cc3F)ccnc2cc1OCCCN1CCOCC1 [Foretinib] (partner 0.25 µM) in the same assay as above. Conditions: first compound 0.01 µM.
Outline: as §1

Compared with 201T, A549 is lower in relative viability: 1.28 for the first, 1.04 for the second.

First: A-427
Second: ABC-1
The relative viability of the first is higher: 0.929 for the first, 0.909 for the second.

Compared with BEN, CAL-12T is higher in relative viability: 0.523 for the first, 1.12 for the second.

Going from COR-L23 to COR-L 105, the relative viability falls from 1.02 to 0.781.

First: Calu-6
Second: ChaGo-K-1
The relative viability of the first is higher: 0.905 for the first, 0.856 for the second.

First: EBC-1
Second: EKVX
The relative viability of the first is lower: 0.111 for the first, 0.743 for the second.

First: EPLC-272H
Second: H3255
The relative viability of the first is lower: 0.674 for the first, 0.892 for the second.

Going from HARA to HCC-15, the relative viability rises from 0.977 to 1.04.

Going from HCC-78 to HCC-366, the relative viability rises from 0.54 to 0.96.

Going from HCC-827 to HOP-62, the relative viability rises from 1.07 to 1.09.

Compared with IA-LM, LC-2-ad is lower in relative viability: 0.945 for the first, 0.823 for the second.

Compared with LCLC-97TM1, LCLC-103H is higher in relative viability: 0.847 for the first, 0.922 for the second.

Compared with LK-2, LOU-NH91 is lower in relative viability: 1.16 for the first, 0.875 for the second.

First: LU99A
Second: NCI-H520
The relative viability of the first is higher: 0.86 for the first, 0.784 for the second.

First: NCI-H661
Second: NCI-H1299
The relative viability of the first is lower: 1.07 for the first, 1.08 for the second.

Going from NCI-H1563 to NCI-H1623, the relative viability falls from 0.882 to 0.863.

Going from NCI-H1650 to NCI-H1703, the relative viability falls from 1.12 to 0.399.

Going from NCI-H2009 to NCI-H2023, the relative viability falls from 1.17 to 0.85.

Going from NCI-H2228 to NCI-H2342, the relative viability rises from 0.837 to 1.14.

First: SK-LU-1
Second: SK-MES-1
The relative viability of the first is lower: 0.773 for the first, 1.02 for the second.

Compared with SW 1573, UMC-11 is higher in relative viability: 0.953 for the first, 0.981 for the second.

Same assay, conditions: first compound 0.03162 µM

Compared with 201T, A549 is lower in relative viability: 1.14 for the first, 0.984 for the second.

Compared with A-427, ABC-1 is higher in relative viability: 1.02 for the first, 1.31 for the second.

First: BEN
Second: CAL-12T
The relative viability of the first is lower: 0.682 for the first, 1.09 for the second.

Going from COR-L23 to COR-L 105, the relative viability falls from 0.997 to 0.872.

Compared with Calu-6, ChaGo-K-1 is lower in relative viability: 0.956 for the first, 0.951 for the second.

Compared with EBC-1, EKVX is higher in relative viability: 0.101 for the first, 1.15 for the second.

First: EPLC-272H
Second: H3255
The relative viability of the first is lower: 0.681 for the first, 0.851 for the second.

First: HARA
Second: HCC-15
The relative viability of the first is lower: 0.892 for the first, 0.936 for the second.

Compared with HCC-78, HCC-366 is higher in relative viability: 0.628 for the first, 0.935 for the second.

First: HCC-827
Second: HOP-62
The relative viability of the first is lower: 1.09 for the first, 1.23 for the second.

First: IA-LM
Second: LC-2-ad
The relative viability of the first is higher: 1.18 for the first, 0.995 for the second.

Compared with LCLC-97TM1, LCLC-103H is lower in relative viability: 0.906 for the first, 0.794 for the second.

Compared with LK-2, LOU-NH91 is lower in relative viability: 1.21 for the first, 0.945 for the second.

Compared with LU99A, NCI-H520 is higher in relative viability: 0.779 for the first, 0.81 for the second.

Compared with NCI-H661, NCI-H1299 is higher in relative viability: 1.07 for the first, 1.11 for the second.

Compared with NCI-H1563, NCI-H1623 is lower in relative viability: 0.949 for the first, 0.863 for the second.

Compared with NCI-H1650, NCI-H1703 is lower in relative viability: 1.15 for the first, 0.43 for the second.

Going from NCI-H2009 to NCI-H2023, the relative viability falls from 1.21 to 0.933.

Compared with NCI-H2228, NCI-H2342 is higher in relative viability: 1.15 for the first, 1.18 for the second.

First: SK-LU-1
Second: SK-MES-1
The relative viability of the first is lower: 0.831 for the first, 0.924 for the second.

Going from SW 900 to SW 1573, the relative viability rises from 0.727 to 0.914.

In the case of UMC-11, the relative viability is reported as 1.06.

Same assay, conditions: first compound 0.1 µM

Compared with A549, A-427 is lower in relative viability: 1.24 for the first, 1.09 for the second.

Compared with ABC-1, BEN is lower in relative viability: 1.39 for the first, 0.566 for the second.

Going from CAL-12T to COR-L23, the relative viability falls from 1.16 to 1.08.

Compared with COR-L 105, Calu-6 is lower in relative viability: 1.24 for the first, 0.91 for the second.

First: ChaGo-K-1
Second: EBC-1
The relative viability of the first is higher: 0.941 for the first, 0.115 for the second.

Going from EKVX to EPLC-272H, the relative viability falls from 0.755 to 0.591.

Compared with H3255, HARA is lower in relative viability: 0.921 for the first, 0.84 for the second.

Compared with HCC-15, HCC-78 is lower in relative viability: 1.2 for the first, 0.587 for the second.

Going from HCC-366 to HCC-827, the relative viability rises from 0.924 to 1.09.

First: HOP-62
Second: IA-LM
The relative viability of the first is lower: 1.15 for the first, 1.43 for the second.

Compared with LC-2-ad, LCLC-97TM1 is higher in relative viability: 0.958 for the first, 0.994 for the second.

Going from LCLC-103H to LK-2, the relative viability rises from 0.871 to 1.64.

First: LOU-NH91
Second: LU99A
The relative viability of the first is higher: 0.943 for the first, 0.771 for the second.

Compared with NCI-H520, NCI-H661 is higher in relative viability: 0.743 for the first, 1.12 for the second.

First: NCI-H1299
Second: NCI-H1563
The relative viability of the first is higher: 1.1 for the first, 1.05 for the second.

First: NCI-H1623
Second: NCI-H1650
The relative viability of the first is lower: 0.854 for the first, 1.31 for the second.

Compared with NCI-H1703, NCI-H2009 is higher in relative viability: 0.335 for the first, 1.26 for the second.

Compared with NCI-H2023, NCI-H2228 is lower in relative viability: 0.916 for the first, 0.686 for the second.
